From US20230322788A1, “IMIDAZOTRIAZINE AND PYRROLOPYRIMIDINE DERIVATIVES AS KRAS G12C INHIBITORS” (BeiGene, Ltd., priority 2020, published 2023) come the findings set out here.

The experiment deals with KRAS (aa 1-169) G12C, C51S, C80L, C118S (Homo sapiens (Human), UniProt P01116, C118S/C51S/C80L/G12C). The experiment can be described thus: KRAS G12C SOS1-mediated nucleotide exchange / cRaf RBD binding FRET assay (Biochemical Functional Assay). To be noted: GDP-loaded KRAS G12C pre-incubated with compound at 24° C. for 3 hrs; SOS1, GTPγS, GST-cRaf RBD; inhibition of nucleotide exchange. The method, then: The KRAS ([…]) G12C, C51S, C80L, C118S with a His-tag was expressed, purified and loaded with GDP in house. All protein and substrate solutions were prepared in assay buffer containing 25 mM HEPES pH7.5, 10 mM MgCl2, and 0.01% Triton X-100. Purified GDP-loaded KRAS (aa 1-169) G12C, C51S, C80L, C118S protein was pre-incubated with a serially diluted compound at 24° C. for 3 hrs. Purified SOS1 (aa 564-1049) protein, GTPYS (Sigma) and GST-cRaf RBD (aa 1-149) were then added to each well and incubated at 24° C. for additional 3 hrs. […] Following the incubation, Mab Anti-6HIS-Tb cryptate (Cisbio) and Mab Anti GST-XL665 (Cisbio) were added and further incubated at 24° C. for 3 hrs. The binding interaction between active GTPγS KRAS G12C and GST-cRaf RBD brings the Tb and XL665 into close proximity enabling an increased FRET signal (Ex337 nm, Em665 nm/620 nm). The inhibition percentage of nucleotide exchange reaction in presence of increasing concentrations of compounds was calculated based on the ratio of fluorescence at 665 nm to that at 620 nm detected on a BMG PHERAstar FSX instrument. The IC50 value of each compound was calculated from fitting the data to the four-parameter logistic model by Dotmatics.
Chain of KRAS (aa 1-169) G12C, C51S, C80L, C118S (P01116 other isoform, or with tags, fused parts or gaps G12C/C51S/C80L/C118S): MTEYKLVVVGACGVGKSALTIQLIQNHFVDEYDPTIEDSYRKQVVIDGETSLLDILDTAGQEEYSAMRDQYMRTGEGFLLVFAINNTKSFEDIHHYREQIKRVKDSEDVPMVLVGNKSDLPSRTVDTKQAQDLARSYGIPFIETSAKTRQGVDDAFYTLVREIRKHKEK
Broadly, the IC50 is the point on the concentration scale where inhibition reaches its midpoint. In the case of `C=CC(=O)N1CCN(c2nc(OC[C@@H]3CCCN3C)nn3c(C(=O)c4cccc5ccccc45)cnc23)C[C@@H]1CC#N` [Compound A23, 2-((S)-4-(7-(1-naphthoyl)-2-(((S)-1-methylpyrrolidin-2-yl)methoxy)imidazo[2,1-f][1,2,4]triazin-4-yl)-1-acryloylpiperazin-2-yl)acetonitrile], the IC50 was determined as 489 nM.

Turning to `C=CC(=O)N1CCN(c2nc(OC[C@@H]3CCCN3C)nc3c(Cc4cc(O)cc5ccccc45)cn(C)c23)C[C@@H]1CC#N` [Compound B1, 2-((S)-1-acryloyl-4-(7-((3-hydroxynaphthalen-1-yl)methyl)-5-methyl-2-(((S)-1-methylpyrrolidin-2-yl)methoxy)-5H-pyrrolo[3,2-d]pyrimidin-4-yl)piperazin-2-yl)acetonitrile], the IC50 stood at 6.2 nM.

Take `C=CC(=O)N1CCN(c2nc(OC[C@@H]3CCCN3C)nc3c(Cc4cc(O)cc5ccccc45)cn(CC)c23)C[C@@H]1CC#N` [Compound B2, 2-((S)-1-acryloyl-4-(5-ethyl-7-((3-hydroxynaphthalen-1-yl)methyl)-2-(((S)-1-methylpyrrolidin-2-yl)methoxy)-5H-pyrrolo[3,2-d]pyrimidin-4-yl)piperazin-2-yl)acetonitrile]: the IC50 was 13 nM.

Take `C=CC(=O)N1CCN(c2nc(OC[C@@H]3C[C@@H](F)CN3C)nc3c(Cc4cc(O)cc5ccccc45)cn(C)c23)C[C@@H]1CC#N` [Compound B3, 2-((S)-1-acryloyl-4-(2-(((2S,4R)-4-fluoro-1-methylpyrrolidin-2-yl)methoxy)-7-((3-hydroxynaphthalen-1-yl)methyl)-5-methyl-5H-pyrrolo[3,2-d]pyrimidin-4-yl)piperazin-2-yl)acetonitrile]: the IC50 amounted to 20.3 nM.

Consider `C=CC(=O)N1CCN(c2nc(OC[C@@H]3CCCN3C)nc3c(Cc4cc(O)cc5ccccc45)cn(C)c23)CC1` [Compound B4, (S)-1-(4-(7-((3-hydroxynaphthalen-1-yl)methyl)-5-methyl-2-((1-methylpyrrolidin-2-yl)methoxy)-5H-pyrrolo[3,2-d]pyrimidin-4-yl)piperazin-1-yl)prop-2-en-1-one], for which the IC50 stood at 329 nM.

As for `C=CC(=O)N1CCN(c2nc(OC[C@@H]3CCCN3C)nc3c(Cc4c(C(F)(F)F)ccc5[nH]ncc45)c[nH]c23)C[C@@H]1CC#N` [Compound B5, 2-((S)-1-acryloyl-4-(2-(((S)-1-methylpyrrolidin-2-yl)methoxy)-7-((5-(trifluoromethyl)-1H-indazol-4-yl)methyl)-5H-pyrrolo[3,2-d]pyrimidin-4-yl)piperazin-2-yl)acetonitrile], the IC50 turned out to be 64.1 nM.

Consider `C=C(F)C(=O)N1CCN(c2nc(OC[C@@H]3CCCN3C)nc3c(Cc4c(Cl)c(F)cc5[nH]ncc45)c[nH]c23)C[C@@H]1CC#N` [Compound B6, 2-((S)-4-(7-((5-chloro-6-fluoro-1H-indazol-4-yl)methyl)-2-(((S)-1-methylpyrrolidin-2-yl)methoxy)-5H-pyrrolo[3,2-d]pyrimidin-4-yl)-1-(2-fluoroacryloyl)piperazin-2-yl)acetonitrile], for which the IC50 came out at 639 nM.
